Reference: US20260166021A1, “POLYMORPHIC FORMS OF A SOLUBLE EPOXIDE HYDROLASE INHIBITOR AND FORMULATIONS THEREOF” (EicOsis, LLC, priority 2022, published 2026)

Columns and labels:
[1] = PEG-stability analyses: Form C/Form D mixture slurried in PEG300 with water; assay type: physicochemical; details: 1:1 mixture of Forms C and D slurried in PEG300; XRD
Method: Of particular interest was whether Form D would convert to a hydrate (e.g., Form C) in the presence of water. To investigate the critical water concentration for phase interconversion between Pattern C and D, a series experiments were designed (as summarized in TABLE 16). A 1:1 mixture of Forms C and D was prepared and slurried in PEG 300 with different levels of water concentrations. Phase transformations were monitored with XRD, and are summarized in FIG. 85, which (from top to bottom) provides XRD of Form C, Form D, the mixture following incubation in PEG300 containing 75% water, the mixture following incubation in PEG300 containing 50% water, the mixture following incubation in PEG300 containing 25% water, the mixture following incubation in PEG300 containing 10% water, and the mixture following incubation in PEG300 containing 5% water. […] Form D is the stable form in PEG300 with less than 50% water.

[2] = Particle size analysis (Malvern particle sizer, dry method; optical microscopy); assay type: physicochemical
Method: Particle size was first analyzed with optical microscopy.
Particle size was also analyzed with a dry-method using a Malvern 300 particle sizer equipped with a standard energy venturi and utilizing 2.5 bar, 3.0 bar, and 3.5 bar air pressure. […] One possible explanation is that the insufficient energy was provided to break up particle agglomerations.
Based on these findings, particle size analysis was repeated at 2.5, 3.0, and 3.5 bar using a higher energy venturi to ensure the break-up of the potential agglomerates. The detailed particle sizing data using high-energy venturi are summarized in TABLE 26 and in FIGS. 114-119, with FIGS. 114-116 corresponding to 2.5, 3.0, and 3.5 bar analyses of unmilled Form D and FIGS. 117-119 corresponding to 2.5, 3.0, and 3.5 bar analyses of micronized Form D, respectively. While the data remained bimodal, indicating incomplete break-up of particle agglomerates, the D90 of micronized material measured below 6 μm, in closer agreement with the optical analyses.

[3] = milled (micronized), 2.5 bar air pressure, high-energy venturi
[4] = milled (micronized), 2.5 bar air pressure, standard energy venturi
[5] = milled (micronized), 3.0 bar air pressure, high-energy venturi
[6] = milled (micronized), 3.0 bar air pressure, standard energy venturi
[7] = milled (micronized), 3.5 bar air pressure, high-energy venturi
[8] = milled (micronized), 3.5 bar air pressure, standard energy venturi
[9] = unmilled, 2.5 bar air pressure, high-energy venturi
[10] = unmilled, 2.5 bar air pressure, standard energy venturi
[11] = unmilled, 3.0 bar air pressure, high-energy venturi
[12] = unmilled, 3.0 bar air pressure, standard energy venturi
[13] = unmilled, 3.5 bar air pressure, high-energy venturi
[14] = unmilled, 3.5 bar air pressure, standard energy venturi

SMILES: CC[C@H](C)C(=O)N1CCC(NC(=O)Nc2ccc(OC(F)(F)F)c(F)c2)CC1 [Form D, (S)-1-(3-fluoro-4-(trifluoromethoxy)phenyl)-3-(1-(2-methylbutanoyl)piperidin-4-yl)urea]
- critical water concentration for phase interconversion between Pattern C and D [1]: 50%
- D10 [2, 3]: 0.46 μm
- D50 [2, 3]: 1.52 μm
- D90 [2, 3]: 5.80 μm
- PSD Modal [2, 3]: Bimodal
- D10 [2, 4]: 0.56 μm
- D50 [2, 4]: 1.85 μm
- D90 [2, 4]: 45.9 μm
- PSD Modal [2, 4]: Bimodal
- D10 [2, 5]: 0.46 μm
- D50 [2, 5]: 1.47 μm
- D90 [2, 5]: 5.42 μm
- PSD Modal [2, 5]: Bimodal
- D10 [2, 6]: 0.55 μm
- D50 [2, 6]: 1.80 μm
- D90 [2, 6]: 47.4 μm
- PSD Modal [2, 6]: Bimodal
- D10 [2, 7]: 0.44 μm
- D50 [2, 7]: 1.51 μm
- D90 [2, 7]: 5.44 μm
- PSD Modal [2, 7]: Bimodal
- D10 [2, 8]: 0.54 μm
- D50 [2, 8]: 1.69 μm
- D90 [2, 8]: 29.4 μm
- PSD Modal [2, 8]: Bimodal
- D10 [2, 9]: 5.24 μm
- D50 [2, 9]: 22.0 μm
- D90 [2, 9]: 55.8 μm
- PSD Modal [2, 9]: Bimodal
- D10 [2, 10]: 8.66 μm
- D50 [2, 10]: 34.5 μm
- D90 [2, 10]: 79.3 μm
- PSD Modal [2, 10]: Unimodal
- D10 [2, 11]: 4.47 μm
- D50 [2, 11]: 20.1 μm
- D90 [2, 11]: 54.8 μm
- PSD Modal [2, 11]: Bimodal
- D10 [2, 12]: 8.26 μm
- D50 [2, 12]: 35.0 μm
- D90 [2, 12]: 91.2 μm
- PSD Modal [2, 12]: Unimodal
- D10 [2, 13]: 2.84 μm
- D50 [2, 13]: 17.2 μm
- D90 [2, 13]: 51.1 μm
- PSD Modal [2, 13]: Bimodal
- D10 [2, 14]: 7.37 μm
- D50 [2, 14]: 33.1 μm
- D90 [2, 14]: 78.6 μm
- PSD Modal [2, 14]: Unimodal
